# Source: patent US9029293B2, “Tobacco axillary bud inhibitor and tobacco axillary bud-inhibiting method” (priority 2011, dated 2015)
# Assays:
# [1] = system: axillary buds of tobacco Michinoku 1 (burley cultivar); assay: Axillary bud growth inhibition, pot test in glasshouse, spraying after top pruning (burley cultivar); format: in vivo, Nicotiana tabacum; conditions: 28 days after spraying
# Experimental: (§1) Tobacco seedlings of Tsukuba 1 (flue-cured cultivar) and Michinoku 1 (burley cultivar) were transplanted to 1/5000a Wagner pots filled with Kureha garden nursery soil. The plants were grown in a glasshouse, and the floral axis parts were removed at the time of single-flower bloom of tobacco (top pruning).
# (§2) The formulations of the inhibitors for tobacco axillary bud growth obtained in Formulation Examples 1 to 4 above were each diluted with water to predetermined concentrations, and 20 ml of the water-diluted solutions of the respective inhibitors were separately sprayed using a contact-type axillary bud inhibitor spraying instrument equipped with a spot exhaust nozzle (Examples 1 to 4 and 5 to 8). In addition, butralin (trade name: Blue Ribbon) (Comparative Examples 1 to 2 and 5 to 6) and decyl alcohol (trade name: Contact) (Comparative Examples 3 to 4 and 7 to 8) were used for tests as comparative examples in the same manner as above. In the cases of both the flue-cured cultivar and burley cultivar, one plant was planted per pot, and the tests were carried out in duplicate.
# (§3) For the respective cases, states of inhibition of axillary bud growth 28 days after the spraying were investigated together with untreated groups sprayed with no inhibitor, and axillary bud growth inhibition ratios were calculated by the following equation. Axillary bud growth inhibition ratio=(fresh weight of axillary buds per plant of untreated group−fresh weight of axillary buds per plant of treated group)÷(fresh weight of axillary buds per plant of untreated group)×100 [Math. 1]
# (§4) Formulation of Formulation Example 1 or Formulation Example 3 was diluted with water to predetermined concentrations and mixed with decyl alcohol (manufactured by Wako Pure Chemical Industries, Ltd.), 2-ethylhexanol (manufactured by Wako Pure Chemical Industries, Ltd.) or geraniol (manufactured by Wako Pure Chemical Industries, Ltd.) at predetermined concentrations, and the resultant was adjusted and used for tests (Examples 9 to 14 and 15 to 20). In addition, as comparative examples, the formulation of Formulation Example 1 or Formulation Example 3 diluted with water to predetermined concentrations (Comparative Examples 9 to 10 and 14 to 15) and decyl alcohol, 2-ethylhexanol or geraniol diluted with water to a predetermined concentration were used for tests (Comparative Examples 11 to 13 and 16 to 18).
# (§5) The respective inhibitors were sprayed in the same manner as in Test Example 1, and states of inhibition of axillary bud growth 28 days after the spraying were investigated together with untreated groups sprayed with no inhibitor. Then, axillary bud growth inhibition ratios were calculated.
# [2] = system: axillary buds of tobacco Tsukuba 1 (flue-cured cultivar); assay: Axillary bud growth inhibition, pot test in glasshouse, spraying after top pruning (flue-cured cultivar); format: in vivo, Nicotiana tabacum; conditions: 28 days after spraying
# Experimental: as §1, §2, §3, §4, §5
# [3] = system: leaves (first to fourth from the top) of tobacco Michinoku 1 (burley cultivar); assay: Harmful effect of inhibitor on leaves (burley cultivar); parameters: species or system Nicotiana tabacum; conditions: in vivo
# Experimental: as §1, §2
# Further, the presence or absence of the harmful effect of each inhibitor was evaluated in one of the following four categories depending on the degrees of growth inhibition, gangrene, change in color, deformation and the like of leaves (first to fourth leaves from the top). […]
# [4] = active ingredient 0.03%, 20 ml sprayed
# [5] = active ingredient 0.35%, 20 ml sprayed
# [6] = active ingredient 2.6%, 20 ml sprayed
Structure (SMILES),Axillary bud growth inhibition ratio (%) ([1]; active ingredient 0.5%),Axillary bud growth inhibition ratio (%) ([2]; active ingredient 0.5%),"Axillary bud growth inhibition ratio (%) [1, 4] [%]","Axillary bud growth inhibition ratio (%) [2, 4] [%]",Harmful effect of inhibitor [3],Axillary bud growth inhibition ratio (%) ([1]; active ingredient 0.005%),Axillary bud growth inhibition ratio (%) ([2]; active ingredient 0.005%),other results
CCCCC(CC)CO (centres unmarked) [2-ethylhexanol],28,21,,,,,,
"CCC(C)Nc1c([N+](=O)[O-])cc(C(C)(C)C)cc1[N+](=O)[O-] (centres unmarked) [Butralin, butralin]",,,48,44,Absent,,,"Axillary bud growth inhibition ratio (%) [1, 5]: 97%; Axillary bud growth inhibition ratio (%) [2, 5]: 98%"
"CCCCCCCCCCO [Decyl Alcohol, decyl alcohol]",37,30,0,0,Absent,,,"Axillary bud growth inhibition ratio (%) [1, 6]: 94%; Axillary bud growth inhibition ratio (%) [2, 6]: 91%"
"CSC(=O)c1c(C(F)F)nc(C(F)(F)F)c(C(=O)SC)c1CC(C)C [Dithiopyr, dithiopyr]",,,,,,78,75,
"CC(C)=CCC/C(C)=C/CO [Geraniol, geraniol]",32,26,,,,,,
"C#CC(C)(C)NC(=O)c1cc(Cl)cc(Cl)c1 [Propyzamide, propyzamide]",,,,,,72,70,
